Reference: US20250084097A1, “MACROCYCLIC AMIDE COMPOUNDS AND APPLICATION THEREOF” (Medshine Discovery Inc., priority 2021, published 2025)

Tests used:
[1] = target: Ba/F3-FL-EGFR (del19-E746-A750/C797S) (Homo sapiens, UniProt P00533, DEL746-750/C797S, cells depend on it); assay: Cell proliferation inhibition, CellTiter-Glo; type: cell-based; settings: 72 hours, read-out: Cell half-maximal inhibition concentration IC50 Ba/F3-FL-EGFR (del19-E746-A750/C797S)
Procedure: AdenosineTri-Phosphate (ATP) is an energy carrier shared by various life activities in nature, and is the smallest unit of energy storage and transfer. The CellTiter-Glo™ living cell assay kit uses luciferase as a detector, and luciferase requires the participation of ATP in the process of luminescence. CellTiter-Glo™ reagent is added to a cell culture medium, and the luminescence value is measured. The light signal is directly proportional to the amount of ATP in the system, and ATP is positively correlated with the number of living cells. Therefore, cell proliferation can be detected by detecting ATP content with the CellTiter-Glo kit. In this assay, the cell lines were Ba/F3-FL-EGFR (L858R/T790M/C797S), Ba/F3-FL-EGFR (WT), Ba/F3-FL-EGFR (L858R), Ba/F3-FL-EGFR (del19-S752-I759), Ba/F3-FL-EGFR (del19-E746-A750/T790M/C797S), Ba/F3-FL-EGFR (L858R/T790M), Ba/F3-FL-EGFR (del19-E746-A750/T790M), Ba/F3-TEL-EGFR (L858R/C797S), Ba/F3-FL-EGFR (del19-E746-A750/C797S) stably transfected cell lines.
The cell lines were cultured in an incubator at 37° C. and 5% CO2. The cells were periodically passaged, and cells in logarithmic growth phase were taken for plating.
a) DMSO was used to prepare a 10 mM solution of the compound to be tested, and then the compound to be tested was diluted to 0.3 or 1 mM with DMSO.
b) Preparation of 1000× compound storage plate (tube): DMSO was used to dilute by 3-fold gradient from the highest concentration to the lowest concentration, with a total of 9 concentrations.
c) Preparation of 20× compound working solution: 49 μL of cell culture medium was added to a flat-bottomed 96-well transparent drug plate, and 1 μL of compound was pipetted from the 1000× compound storage plate to the cell culture medium of the 96-well transparent drug plate. 1 μL of DMSO was added to the vehicle control. After adding compound or DMSO, the well content was mixed to uniform by aspiration and expelling with pipette.
a) Cells were stained with trypan blue and viable cells were counted. The cell viability rate was required to be above 90%.
b) 95 μL of cell suspension (2000 cells/well) was added to each well of the compound detection cell plate, and culture medium without cells (containing 0.1% DMSO) was added to the Min control well.
c) Dosing in the compound detection cell plate: 5 μL of 20× compound working solution was added to the cell culture plate. 5 μL of DMSO-cell culture mixture was added to the Max control. The final concentration of DMSO was 0.1%.
d) The culture plate was incubated in an incubator at 37° C., 5% CO2 for 72 hours.
Cell proliferation inhibition rate (Inhibition Rate) data were processed using the following formula:
Inhibition Rate (Inh %)=100−(RLUDrug−RLUMin)/(RLUMax−RLUMin)*100%.
The inhibition rates corresponding to different concentrations of compounds were calculated, and then GraphPad Prism software was used to draw the inhibition rate curve and the IC50 value was calculated.

[2] = target: T1, EGFR (WT) (Homo sapiens, UniProt P00533); assay: Kinase inhibitory activity, 33P-ATP filtration-binding (Reaction Biology Corp.); type: biochemical; settings: ATP 100 μM; read-out: Kinase half-maximal inhibition concentration IC50 EGFR(WT)
T1 construct: Reaction Biology Corp. (assay performed there)
T1 sequence (P00533 25-1210): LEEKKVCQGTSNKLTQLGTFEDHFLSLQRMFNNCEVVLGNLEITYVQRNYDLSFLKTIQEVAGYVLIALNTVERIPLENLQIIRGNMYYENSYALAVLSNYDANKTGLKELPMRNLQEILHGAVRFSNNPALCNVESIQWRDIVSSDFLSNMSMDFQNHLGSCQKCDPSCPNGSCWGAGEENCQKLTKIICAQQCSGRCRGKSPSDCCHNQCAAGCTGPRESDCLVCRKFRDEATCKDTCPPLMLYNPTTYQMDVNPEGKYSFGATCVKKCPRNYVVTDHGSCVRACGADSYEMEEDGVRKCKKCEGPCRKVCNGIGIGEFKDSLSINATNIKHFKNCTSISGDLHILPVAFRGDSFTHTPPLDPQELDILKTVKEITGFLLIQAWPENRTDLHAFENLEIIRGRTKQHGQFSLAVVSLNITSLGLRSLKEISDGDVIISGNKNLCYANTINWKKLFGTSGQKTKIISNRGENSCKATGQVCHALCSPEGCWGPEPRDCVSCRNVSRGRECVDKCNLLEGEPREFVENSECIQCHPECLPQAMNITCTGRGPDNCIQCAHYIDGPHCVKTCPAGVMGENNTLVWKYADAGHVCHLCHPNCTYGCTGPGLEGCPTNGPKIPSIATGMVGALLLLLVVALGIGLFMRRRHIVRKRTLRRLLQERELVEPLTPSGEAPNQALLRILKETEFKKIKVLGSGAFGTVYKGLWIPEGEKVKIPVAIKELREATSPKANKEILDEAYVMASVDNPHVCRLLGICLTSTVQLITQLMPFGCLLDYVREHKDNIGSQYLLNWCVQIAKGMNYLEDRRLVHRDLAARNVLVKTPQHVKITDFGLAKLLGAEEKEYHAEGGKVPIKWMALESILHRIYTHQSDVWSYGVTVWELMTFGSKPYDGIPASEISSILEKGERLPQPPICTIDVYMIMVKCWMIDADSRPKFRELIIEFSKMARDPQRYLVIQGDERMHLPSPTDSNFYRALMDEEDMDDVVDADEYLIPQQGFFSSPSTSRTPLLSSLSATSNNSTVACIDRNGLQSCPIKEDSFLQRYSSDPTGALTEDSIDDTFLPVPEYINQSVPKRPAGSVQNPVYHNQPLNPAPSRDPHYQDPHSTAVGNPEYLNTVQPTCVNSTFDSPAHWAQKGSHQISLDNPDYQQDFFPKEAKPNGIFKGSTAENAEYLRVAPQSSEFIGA
Procedure: (§1) Compound assay for kinase inhibitory activity against EGFR (L858R/T790M/C797S), EGFR (del19-E746-A750/T790M/C797S), and EGFR (WT) was done at Reaction Biology Corp. In reaction buffer (20 mM Hepes (pH 7.5), 10 mM magnesium chloride (MgCl2), 1 mM ethylenebis(oxyethylenenitrilo)tetraacetic acid (EGTA), 0.02% polyethylene glycol monododecyl ether (Brij35), 0.02 mg/ml BSA, 0.1 mM sodium vanadate (Na3VO4), 2 mM dithiothreitol (DTT), 1% DMSO), a certain concentration of substances, coenzyme factors, kinases and test compounds (10 doses, 3-fold serial dilutions, 2% DMSO final concentration) were added in sequence, and mixed well. The mixture was incubated at room temperature for 20 minutes. A certain concentration of ^33P-ATP was added to the reaction mixture to initiate reaction, followed by incubation at room temperature for 120 minutes. Finally, the radioactivity of the reactants was detected by filtration-binding method. The final kinase activity was expressed as the ratio of the remaining kinase activity of the test sample to the kinase activity of the DMSO control group. The dose-response relationship curve was fitted and IC50 was calculated using GraphPad software.

[3] = target: T2, EGFR (del19-E746-A750/T790M/C797S) (Homo sapiens, UniProt P00533, C797S/DEL746-750/T790M); assay: as above; type: biochemical; settings: ATP 100 μM; read-out: Kinase half-maximal inhibition concentration IC50 EGFR(del19-E746-A750/T790M/C797S)
T2 construct: Reaction Biology Corp. (assay performed there)
T2 sequence (P00533 with tags, fused parts or gaps DEL746-750/T790M/C797S): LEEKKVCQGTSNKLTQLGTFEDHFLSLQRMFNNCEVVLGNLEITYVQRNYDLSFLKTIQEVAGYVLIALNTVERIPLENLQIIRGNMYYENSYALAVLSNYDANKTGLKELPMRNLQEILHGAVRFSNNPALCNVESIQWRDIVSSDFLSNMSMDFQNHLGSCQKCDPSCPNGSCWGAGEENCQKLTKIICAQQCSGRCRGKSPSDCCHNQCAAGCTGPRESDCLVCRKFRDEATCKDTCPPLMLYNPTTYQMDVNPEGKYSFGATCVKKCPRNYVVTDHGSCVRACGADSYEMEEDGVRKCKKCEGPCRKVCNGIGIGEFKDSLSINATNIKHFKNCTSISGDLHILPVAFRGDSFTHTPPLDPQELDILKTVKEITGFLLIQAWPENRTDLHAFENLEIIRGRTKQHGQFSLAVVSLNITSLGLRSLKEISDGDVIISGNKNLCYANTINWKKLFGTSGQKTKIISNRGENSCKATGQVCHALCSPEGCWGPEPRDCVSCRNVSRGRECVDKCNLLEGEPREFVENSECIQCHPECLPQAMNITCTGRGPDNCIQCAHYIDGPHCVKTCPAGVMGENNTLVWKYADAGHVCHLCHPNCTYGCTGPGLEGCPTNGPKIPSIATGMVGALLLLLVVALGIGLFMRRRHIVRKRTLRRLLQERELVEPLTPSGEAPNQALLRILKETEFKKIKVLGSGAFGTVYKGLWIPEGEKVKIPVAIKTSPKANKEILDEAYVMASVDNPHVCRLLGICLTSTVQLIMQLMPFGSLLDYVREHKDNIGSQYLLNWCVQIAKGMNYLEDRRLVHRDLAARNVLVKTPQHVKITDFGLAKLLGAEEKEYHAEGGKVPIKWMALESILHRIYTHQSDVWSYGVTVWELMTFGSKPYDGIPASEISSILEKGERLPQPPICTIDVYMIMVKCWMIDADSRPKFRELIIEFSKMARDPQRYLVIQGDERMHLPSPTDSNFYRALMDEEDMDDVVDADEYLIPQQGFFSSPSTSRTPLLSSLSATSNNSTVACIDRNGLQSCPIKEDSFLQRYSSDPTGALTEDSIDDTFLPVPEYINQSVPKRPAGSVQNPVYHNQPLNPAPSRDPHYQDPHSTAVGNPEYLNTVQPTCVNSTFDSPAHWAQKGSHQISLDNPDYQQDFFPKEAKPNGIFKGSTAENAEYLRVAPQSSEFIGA
Procedure: as §1

[4] = target: T3, EGFR (L858R/T790M/C797S) (Homo sapiens, UniProt P00533, C797S/L858R/T790M); assay: as above; type: biochemical; settings: ATP 100 μM; read-out: Kinase half-maximal inhibition concentration IC50 EGFR(L858R/T790M/C797S)
T3 construct: Reaction Biology Corp. (assay performed there)
T3 sequence (P00533 25-1210 T790M/C797S/L858R): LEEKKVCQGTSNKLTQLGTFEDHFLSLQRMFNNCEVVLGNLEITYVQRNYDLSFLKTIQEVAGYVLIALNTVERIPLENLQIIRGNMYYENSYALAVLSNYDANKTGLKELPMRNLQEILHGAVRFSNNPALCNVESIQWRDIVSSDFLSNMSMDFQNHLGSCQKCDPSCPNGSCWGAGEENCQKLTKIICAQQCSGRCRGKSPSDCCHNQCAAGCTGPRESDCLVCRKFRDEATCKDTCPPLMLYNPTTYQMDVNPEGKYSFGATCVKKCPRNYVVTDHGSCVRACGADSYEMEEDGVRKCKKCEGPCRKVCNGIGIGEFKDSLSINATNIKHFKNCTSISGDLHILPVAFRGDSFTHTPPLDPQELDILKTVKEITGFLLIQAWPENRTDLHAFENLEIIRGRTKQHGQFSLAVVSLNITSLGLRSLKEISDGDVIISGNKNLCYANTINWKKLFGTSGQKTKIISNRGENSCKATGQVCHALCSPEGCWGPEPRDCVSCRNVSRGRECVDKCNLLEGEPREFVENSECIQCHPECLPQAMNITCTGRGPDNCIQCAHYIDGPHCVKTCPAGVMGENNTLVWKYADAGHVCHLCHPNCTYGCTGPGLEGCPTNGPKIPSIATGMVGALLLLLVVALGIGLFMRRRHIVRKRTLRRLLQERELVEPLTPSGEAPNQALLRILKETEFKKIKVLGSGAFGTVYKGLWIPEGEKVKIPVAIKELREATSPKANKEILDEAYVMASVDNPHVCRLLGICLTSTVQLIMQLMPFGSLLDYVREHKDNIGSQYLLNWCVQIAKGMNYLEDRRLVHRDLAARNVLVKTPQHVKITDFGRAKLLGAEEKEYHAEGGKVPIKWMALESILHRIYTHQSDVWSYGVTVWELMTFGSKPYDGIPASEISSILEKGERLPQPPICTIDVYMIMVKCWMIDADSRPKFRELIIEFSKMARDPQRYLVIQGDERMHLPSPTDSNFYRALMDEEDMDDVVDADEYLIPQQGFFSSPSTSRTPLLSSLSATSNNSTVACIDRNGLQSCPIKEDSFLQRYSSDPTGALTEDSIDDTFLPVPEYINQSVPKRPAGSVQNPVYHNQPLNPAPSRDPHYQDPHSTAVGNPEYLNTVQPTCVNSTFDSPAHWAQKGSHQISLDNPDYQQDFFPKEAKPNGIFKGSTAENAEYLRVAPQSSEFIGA
Procedure: as §1

[5] = Body weight of animals in the in vivo efficacy assay; settings: for Body weight of the mice compared to the control group (tolerance): 10 days of continuous administration, 10 mg/kg and 25 mg/kg
Procedure: Dosage according to mouse body weight: 10 μL/g. If the body weight decreases by more than 20%, the dosing regimen was adjusted accordingly.
The formulation and any modifications of this assay protocol were evaluated and approved by the Laboratory Animal Welfare Ethics Committee of the testing institution. The health status and death of animals were checked every day. Routine inspections included tumor growth, activity, diet, body weight, eyes, hair and other abnormal behaviors of animals. Tumor volume and body weight were measured three times a week (Monday, Wednesday and Friday). The tumor volume was measured with a vernier caliper, and the formula was TV=0.5 a×b^2, where a is the long diameter of a tumor and b is the short diameter of a tumor.
The body weight of assay animals was used as a reference index to indirectly determine drug toxicity.

[6] = 10 mg/kg/bid, day 0 after administration
[7] = 10 mg/kg/bid, day 3 after administration
[8] = 10 mg/kg/bid, day 5 after administration
[9] = 10 mg/kg/bid, day 7 after administration
[10] = 10 mg/kg/bid, day 10 after administration
[11] = 25 mg/kg/bid, day 0 after administration
[12] = 25 mg/kg/bid, day 3 after administration
[13] = 25 mg/kg/bid, day 5 after administration
[14] = 25 mg/kg/bid, day 7 after administration
[15] = 25 mg/kg/bid, day 10 after administration

Ba/F3-FL-EGFR (del19-E746-A750/C797S), sequence (P00533 with tags, fused parts or gaps DEL746-750/C797S): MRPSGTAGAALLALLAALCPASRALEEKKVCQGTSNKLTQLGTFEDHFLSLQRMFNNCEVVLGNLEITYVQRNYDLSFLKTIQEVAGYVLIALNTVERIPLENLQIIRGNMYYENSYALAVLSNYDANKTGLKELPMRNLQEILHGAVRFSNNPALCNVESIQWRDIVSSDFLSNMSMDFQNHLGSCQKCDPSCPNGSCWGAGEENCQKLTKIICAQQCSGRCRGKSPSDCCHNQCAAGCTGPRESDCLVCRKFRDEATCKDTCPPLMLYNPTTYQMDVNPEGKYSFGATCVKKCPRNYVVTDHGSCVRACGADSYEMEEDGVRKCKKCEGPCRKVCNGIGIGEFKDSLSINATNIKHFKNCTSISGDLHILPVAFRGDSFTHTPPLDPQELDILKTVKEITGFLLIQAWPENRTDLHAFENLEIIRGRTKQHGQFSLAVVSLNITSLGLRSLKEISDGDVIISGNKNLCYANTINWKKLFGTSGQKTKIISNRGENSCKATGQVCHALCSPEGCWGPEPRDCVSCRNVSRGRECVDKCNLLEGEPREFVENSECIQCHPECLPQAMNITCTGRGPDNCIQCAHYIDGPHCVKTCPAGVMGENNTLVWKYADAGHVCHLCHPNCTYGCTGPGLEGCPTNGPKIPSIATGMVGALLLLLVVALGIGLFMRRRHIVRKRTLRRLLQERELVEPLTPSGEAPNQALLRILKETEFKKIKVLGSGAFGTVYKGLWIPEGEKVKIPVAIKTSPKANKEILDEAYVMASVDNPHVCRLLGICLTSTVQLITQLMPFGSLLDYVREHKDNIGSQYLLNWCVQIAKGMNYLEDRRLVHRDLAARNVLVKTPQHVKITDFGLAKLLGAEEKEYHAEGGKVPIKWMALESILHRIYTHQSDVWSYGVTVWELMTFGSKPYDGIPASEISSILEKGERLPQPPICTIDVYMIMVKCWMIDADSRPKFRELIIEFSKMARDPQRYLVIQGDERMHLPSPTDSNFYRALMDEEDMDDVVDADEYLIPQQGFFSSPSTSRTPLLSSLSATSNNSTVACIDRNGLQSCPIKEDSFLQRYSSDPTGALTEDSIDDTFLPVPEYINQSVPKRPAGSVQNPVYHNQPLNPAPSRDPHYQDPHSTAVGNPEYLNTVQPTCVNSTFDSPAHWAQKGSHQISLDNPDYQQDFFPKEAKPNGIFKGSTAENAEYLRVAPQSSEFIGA

Structure (SMILES)	GI50 [1]	IC50 [2]	IC50 [3]	IC50 [4]	Average body weight [5, 6]	Average body weight [5, 7]	Average body weight [5, 8]	Average body weight [5, 9]	Average body weight [5, 10]	Average body weight [5, 11]	Average body weight [5, 12]	Average body weight [5, 13]	Average body weight [5, 14]	Average body weight [5, 15]	Body weight of the mice compared to the control group (tolerance) [5]
Cc1cc2cc(n1)-c1cnn(C)c1OC[C@H]1CC[C@H](C1)CN1/C(=N/C2=O)Nc2ccc(N=S(C)(C)=O)cc21 (single isomer, unassigned) [WX-027A]	4.7 nM	55.8 nM	0.093 nM	1.82 nM	21.7 g	21.9 g	22.1 g	22.1 g	22.2 g	21.0 g	21.5 g	21.6 g	21.4 g	21.8 g	no significant difference
Cc1cc2cc(n1)-c1cnn(C)c1OCCC[C@@H](C)CN1/C(=N/C2=O)Nc2ccc(N=S(C)(C)=O)c(Cl)c21 [WX-019]	6.5 nM	212 nM	0.139 nM	3.55 nM	20.6 g	20.7 g	20.8 g	20.7 g	20.9 g	22.5 g	23.4 g	23.0 g	22.8 g	23.3 g	no significant difference
